Patent US20250122223A1, “HETEROCYCLIC COMPOUNDS AS UBIQUITIN SPECIFIC PROTEASE 7 INHIBITORS” (ALMAC DISCOVERY LIMITED, priority 2022, published 2025)
pIC50: −log10 of the molar value. Where two headings read alike, the source gives them in different places.

Molecular target: USP7 (Homo sapiens (Human), UniProt Q93009)
Assay: USP7 fluorescence polarisation (FP) assay with ubiquitin-Lys-TAMRA substrate
Format: biochemical
Conditions: biochemical inhibition; for pIC50: read-out: USP7 IC50 activity (Table 3a, classes); for IC50: unit not given in Table 3b (Table 1 and key of Table 3a use μM), read-out: USP7 IC50 activity (Table 3b)
Method: USP7 activity was monitored in a fluorescence polarisation (FP) homogeneous assay using the isopeptide ubiquitin-Lys-TAMRA substrate (U-558, Boston Biochem). Full-length USP7 was purchased from Boston Biochem (His6-USP7FL, E-519). Unless otherwise stated, all other reagents were purchased from Sigma-Aldrich. Enzymatic reactions were conducted in black flat-bottom low volume polystyrene 384-well plates (Grenier) and 15 μL total volume. USP7 (2.5 nM, 5 μL) was incubated in assay buffer (50 mM HEPES (pH 7.2), 150 mM NaCl, 5 mM DTT, 0.05% BSA (w/v), 0.05% CHAPS) in the presence or absence of inhibitor (5 μL). Inhibitors were stored as 10 mM DMSO stocks in an inert environment (low humidity, dark, low oxygen, room temperature) using a Storage Pod System and serial dilutions were prepared in buffer just prior to the assay (from 200 to 0.003 μM, 11 dp curve). Following incubation at room temperature for 30 min, the enzymatic reactions were initiated by dispensing the Ub substrate (50 nM, 5 μL). FP was measured every 5 min over a period of 1.5 h (within the linear range of the assay) using a Pherastar FSX (BMG Labtech) exciting at 530 nm and measuring the amount of parallel and perpendicular light at 575 nm. The FP signal was subsequently normalised to the control without compound present. Data were plotted and fitted, and the concentrations resulting in 50% inhibition (IC50) were calculated using the non-linear regression curve fitting model using GraphPad Prism.

USP7, sequence (Q93009 whole entry): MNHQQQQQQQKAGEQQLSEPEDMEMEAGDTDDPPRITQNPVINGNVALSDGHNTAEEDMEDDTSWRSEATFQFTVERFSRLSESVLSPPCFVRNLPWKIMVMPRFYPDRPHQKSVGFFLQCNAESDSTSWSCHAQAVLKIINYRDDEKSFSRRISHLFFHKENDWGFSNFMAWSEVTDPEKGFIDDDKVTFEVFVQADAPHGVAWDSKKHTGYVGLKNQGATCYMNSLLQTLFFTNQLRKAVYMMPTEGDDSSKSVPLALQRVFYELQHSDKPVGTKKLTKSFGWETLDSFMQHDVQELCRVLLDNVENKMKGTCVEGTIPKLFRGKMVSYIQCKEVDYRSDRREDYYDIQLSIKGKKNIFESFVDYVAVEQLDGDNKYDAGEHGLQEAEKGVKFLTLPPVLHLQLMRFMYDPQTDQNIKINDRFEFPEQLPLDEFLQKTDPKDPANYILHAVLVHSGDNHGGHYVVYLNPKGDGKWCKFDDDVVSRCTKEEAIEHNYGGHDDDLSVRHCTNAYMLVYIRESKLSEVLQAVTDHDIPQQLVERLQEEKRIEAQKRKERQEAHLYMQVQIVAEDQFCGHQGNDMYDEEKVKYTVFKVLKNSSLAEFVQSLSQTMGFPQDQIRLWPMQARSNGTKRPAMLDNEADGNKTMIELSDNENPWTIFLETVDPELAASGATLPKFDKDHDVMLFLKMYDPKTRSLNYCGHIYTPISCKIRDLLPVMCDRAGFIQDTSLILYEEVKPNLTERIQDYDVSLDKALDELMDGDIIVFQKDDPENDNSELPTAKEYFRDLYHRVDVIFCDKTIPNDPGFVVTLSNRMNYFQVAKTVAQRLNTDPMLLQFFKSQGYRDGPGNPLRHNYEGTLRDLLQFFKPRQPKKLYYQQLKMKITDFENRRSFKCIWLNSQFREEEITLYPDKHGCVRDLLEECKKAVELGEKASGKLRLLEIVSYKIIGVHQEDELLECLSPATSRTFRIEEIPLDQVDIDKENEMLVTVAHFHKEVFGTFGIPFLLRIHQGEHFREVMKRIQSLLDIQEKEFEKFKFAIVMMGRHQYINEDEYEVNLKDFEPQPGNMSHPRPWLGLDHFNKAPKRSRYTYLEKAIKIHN

Row | pIC50 | IC50 [µM] | SMILES
1 | > 7.00 | 0.045 | CC1(C(=O)N2CCC(O)(Cn3cnc4c(cc(Cl)n4-c4ccc([C@@H]5COCCN5)cc4)c3=O)CC2)CC1C(F)(F)F (stereo partly drawn) [Example 84, 6-Chloro-3-((4-hydroxy-1-(1-methyl-2-(trifluoromethyl)cyclopropane-1-carbonyl)piperidin-4-yl)methyl)-7-(4-((R)-morpholin-3-yl)phenyl)-3,7-dihydro-4H-pyrrolo[2,3-d]pyrimidin-4-one]
2 | > 7.00 | 0.018 | C[C@H]1CN[C@H](c2ccc(-n3c(Cl)cc4c(=O)n(CC5(O)CCN(C(=O)[C@]6(C)C[C@H]6C(F)F)CC5)cnc43)cc2)CO1 [Example 112, 6-Chloro-3-((1-((1R,2R)-2-(difluoromethyl)-1-methylcyclopropane-1-carbonyl)-4-hydroxypiperidin-4-yl)methyl)-7-(4-((3R,6S)-6-methylmorpholin-3-yl)phenyl)-3,7-dihydro-4H-pyrrolo[2,3-d]pyrimidin-4-one]
3 | > 7.00 | 0.079 | CC1(C(=O)N2CCC(O)(Cn3cnc4c(cc(Cl)n4-c4ccc([C@@H]5CO[C@@H](C6CC6)CN5)cc4)c3=O)CC2)CC1 [Example 100, 6-Chloro-7-(4-((3R,6S)-6-cyclopropylmorpholin-3-yl)phenyl)-3-((4-hydroxy-1-(1-methylcyclopropane-1-carbonyl)piperidin-4-yl)methyl)-3,7-dihydro-4H-pyrrolo[2,3-d]pyrimidin-4-one]
4 | 6.60 to 7.00 | 0.167 | C[C@H]1CN[C@H](c2ccc(-n3c(Cl)cc4c(=O)n(CC5(O)CCN(C(=O)c6ccc(C(F)F)cc6)CC5)cnc43)cc2)CO1 [Example 91, 6-Chloro-3-((1-(4-(difluoromethyl)benzoyl)-4-hydroxypiperidin-4-yl)methyl)-7-(4-((3R,6S)-6-methylmorpholin-3-yl)phenyl)-3,7-dihydro-4H-pyrrolo[2,3-d]pyrimidin-4-one]
5 | 6.60 to 7.00 | 0.16 | Cc1cc(-n2c(Cl)cc3c(=O)n(CC4(O)CCN(C(=O)c5ccc(C6CC6)cc5)CC4)cnc32)ccc1[C@H]1CO[C@H](C)CN1 [Example 93, 6-Chloro-3-((1-(4-cyclopropylbenzoyl)-4-hydroxypiperidin-4-yl)methyl)-7-(3-methyl-4-((3S,6R)-6-methylmorpholin-3-yl)phenyl)-3,7-dihydro-4H-pyrrolo[2,3-d]pyrimidin-4-one]
6 | > 7.00 | 0.018 | Cc1cc(-n2c(Cl)cc3c(=O)n(CC4(O)CCN(C(=O)C5(C)CC5)CC4)cnc32)ccc1[C@H]1COCCN1 (single isomer, unassigned) [Example 73]
7 | 6.60 to 7.00 | 0.132 | CC[C@H]1CN[C@H](c2ccc(-n3c(Cl)cc4c(=O)n(CC5(O)CCN(C(=O)[C@@]6(C)C[C@@H]6C)CC5)cnc43)cc2)CO1 [Example 95, 6-Chloro-3-((1-((1 S,2S)-1,2-dimethylcyclopropane-1-carbonyl)-4-hydroxypiperidin-4-yl)methyl)-7-(4-((3R,6S)-6-ethylmorpholin-3-yl)phenyl)-3,7-dihydro-4H-pyrrolo[2,3-d]pyrimidin-4-one]
8 | 6.60 to 7.00 | 0.211 | C[C@H]1CN[C@H](c2ccc(-n3c(Cl)cc4c(=O)n(CC5(O)CCN(C(=O)CCC6CC6)CC5)cnc43)cc2)CO1 [Example 103, 6-Chloro-3-((1-(3-cyclopropylpropanoyl)-4-hydroxypiperidin-4-yl)methyl)-7-(4-((3R,6S)-6-methylmorpholin-3-yl)phenyl)-3,7-dihydro-4H-pyrrolo[2,3-d]pyrimidin-4-one]
9 | > 7.00 | 0.037 | CC[C@H]1CN[C@H](c2ccc(-n3c(Cl)cc4c(=O)n(CC5(O)CCN(C(=O)[C@]6(C)C[C@H]6C)CC5)cnc43)cc2)CO1 [Example 96, 6-Chloro-3-((1-((1R,2R)-1,2-dimethylcyclopropane-1-carbonyl)-4-hydroxypiperidin-4-yl)methyl)-7-(4-((3R,6S)-6-ethylmorpholin-3-yl)phenyl)-3,7-dihydro-4H-pyrrolo[2,3-d]pyrimidin-4-one]
10 | > 7.00 | 0.079 | C[C@@]1(C(=O)N2CCC(O)(Cn3cnc4c(cc(Cl)n4-c4ccc([C@H]5COCCN5)cc4)c3=O)CC2)C[C@H]1C(F)(F)F (single isomer, unassigned) [Example 110, 6-Chloro-3-((4-hydroxy-1-((1R,2R)-1-methyl-2-(trifluoromethyl)cyclopropane-1-carbonyl)piperidin-4-yl)methyl)-7-(4-((S)-morpholin-3-yl)phenyl)-3,7-dihydro-4H-pyrrolo[2,3-d]pyrimidin-4-one or 6-chloro-3-((4-hydroxy-1-((1R,2R)-1-methyl-2-(trifluoromethyl)cyclopropane-1-carbonyl)piperidin-4-yl)methyl)-7-(4-((R)-morpholin-3-yl)phenyl)-3,7-dihydro-4H-pyrrolo[2,3-d]pyrimidin-4-one]

More lines, now with the values behind:

Row | SMILES | pIC50 | IC50 [µM]
11 | CC[C@H]1CN[C@H](c2ccc(-n3c(Cl)cc4c(=O)n(CC5(O)CCN(C(=O)c6ccc(F)cc6)CC5)cnc43)cc2)CO1 [Example 45, 6-Chloro-7-(4-((3R,6S)-6-ethylmorpholin-3-yl)phenyl)-3-((1-(4-fluorobenzoyl)-4-hydroxypiperidin-4-yl)methyl)-3,7-dihydro-4H-pyrrolo[2,3-d]pyrimidin-4-one] | 6.60 to 7.00 | 0.176
12 | C[C@@H]1CN[C@@H](c2ccc(-n3c(Cl)cc4c(=O)n(CC5(O)CCN(C(=O)c6ccc(F)cc6)CC5)cnc43)cc2)CO1 [Example 25, 6-Chloro-3-((1-(4-fluorobenzoyl)-4-hydroxypiperidin-4-yl)methyl)-7-(4-((3S,6R)-6-methylmorpholin-3-yl)phenyl)-3,7-dihydro-4H-pyrrolo[2,3-d]pyrimidin-4-one] | 6.60 to 7.00 | 0.147
13 | C[C@@H]1CN[C@@H](c2ccc(-n3c(Cl)cc4c(=O)n(CC5(O)CCN(C(=O)c6ccccc6)CC5)cnc43)cc2)CO1 [Example 24, 3-((1-Benzoyl-4-hydroxypiperidin-4-yl)methyl)-6-chloro-7-(4-((3S,6R)-6-methylmorpholin-3-yl)phenyl)-3,7-dihydro-4H-pyrrolo[2,3-d]pyrimidin-4-one] | 6.60 to 7.00 | 0.25
14 | Cc1cc(-n2c(Cl)cc3c(=O)n(CC4(O)CCN(C(=O)c5cccc(Cl)c5)CC4)cnc32)ccc1[C@H]1CO[C@H](C)CN1 [Example 51, 6-Chloro-3-((1-(3-chlorobenzoyl)-4-hydroxypiperidin-4-yl)methyl)-7-(3-methyl-4-((3S,6R)-6-methylmorpholin-3-yl)phenyl)-3,7-dihydro-4H-pyrrolo[2,3-d]pyrimidin-4-one] | > 7.00 | 0.258
15 | CC1(C(=O)N2CCC(O)(Cn3cnc4c(cc(Cl)n4-c4ccc([C@@H]5COCCN5)cc4)c3=O)CC2)CC1 (single isomer, unassigned) [Example 71] | > 7.00 | 0.094
16 | C[C@H]1CN[C@H](c2ccc(-n3c(Cl)cc4c(=O)n(CC5(O)CCN(C(=O)C[C@H](c6ccccc6)C(F)(F)F)CC5)cnc43)cc2)CO1 [Example 7, 6-Chloro-3-((4-hydroxy-1-((R)-4,4,4-trifluoro-3-phenylbutanoyl)piperidin-4-yl)methyl)-7-(4-((3R,6S)-6-methylmorpholin-3-yl)phenyl)-3,7-dihydro-4H-pyrrolo[2,3-d]pyrimidin-4-one] | > 7.00 | 0.016
17 | C[C@H]1CN[C@H](c2ccc(-n3c(Cl)cc4c(=O)n(CC5(O)CCN(C(=O)c6ccccc6)CC5)cnc43)cc2)CO1 [Example 20, 3-((1-Benzoyl-4-hydroxypiperidin-4-yl)methyl)-6-chloro-7-(4-((3R,6S)-6-methylmorpholin-3-yl)phenyl)-3,7-dihydro-4H-pyrrolo[2,3-d]pyrimidin-4-one] | 5.70 to 6.60 | 0.379
18 | C[C@@H]1CN[C@@H](c2ccc(-n3c(Cl)cc4c(=O)n(CC5(O)CCN(C(=O)c6ccc(Cl)cc6)CC5)cnc43)cc2)CO1 [Example 11, 6-Chloro-3-((1-(4-chlorobenzoyl)-4-hydroxypiperidin-4-yl)methyl)-7-(4-((3S,6R)-6-methylmorpholin-3-yl)phenyl)-3,7-dihydro-4H-pyrrolo[2,3-d]pyrimidin-4-one] | > 7.00 | 0.08
19 | O=C(c1ccc(Cl)cc1)N1CCC(O)(Cn2cnc3c(cc(Cl)n3-c3ccc(C4COC5CCCCC5N4)cc3)c2=O)CC1 (stereo not drawn) [Example 53, 6-Chloro-3-((1-(4-chlorobenzoyl)-4-hydroxypiperidin-4-yl)methyl)-7-(4-(octahydro-2H-benzo[b][1,4]oxazin-3-yl)phenyl)-3,7-dihydro-4H-pyrrolo[2,3-d]pyrimidin-4-one] | 5.70 to 6.60 | 0.264
20 | Cc1ccc(C(=O)N2CCC(O)(Cn3cnc4c(cc(Cl)n4-c4ccc([C@H]5CO[C@H](C)CN5)c(C)c4)c3=O)CC2)c(Cl)c1 [Example 57, 6-Chloro-3-((1-(2-chloro-4-methylbenzoyl)-4-hydroxypiperidin-4-yl)methyl)-7-(3-methyl-4-((3S,6R)-6-methylmorpholin-3-yl)phenyl)-3,7-dihydro-4H-pyrrolo[2,3-d]pyrimidin-4-one] | > 7.00 | 0.084
21 | CC1(C)CN[C@H](c2ccc(-n3c(Cl)cc4c(=O)n(CC5(O)CCN(C(=O)c6ccc(F)cc6)CC5)cnc43)cc2)CO1 (single isomer, unassigned) [Example 29] | 6.60 to 7.00 | 0.118
